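Exposure lasted 48 hours, with cells grown in 96-well plates and compounds tested at five concentrations. TGI marks complete inhibition of growth.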 Where a SMILES comes first, the peptide text is derived from it. [ ]: non-standard residue; d: D form. 2Nal = N[CH](Cc1ccc2ccccc2c1)C(=O)O
Tests used:
Assay in all cases: NCI tumour cell line growth inhibition, 48 h
DMS 273 small cell lung = tested on: DMS 273 small cell lung
RXF-631 renal = tested on: RXF-631 renal
DMS 114 small cell lung = tested on: DMS 114 small cell lung
XF 498 CNS = tested on: XF 498 CNS
M19-MEL melanoma = tested on: M19-MEL melanoma
KM20L2 colon = tested on: KM20L2 colon
DLD-1 colon = tested on: DLD-1 colon
SNB-78 CNS = tested on: SNB-78 CNS
MDA-N = tested on: MDA-N

SMILES	TGI (DMS 273 small cell lung) [µM]	TGI (RXF-631 renal) [µM]	TGI (DMS 114 small cell lung) [µM]	TGI (XF 498 CNS) [µM]	TGI (M19-MEL melanoma) [µM]	TGI (KM20L2 colon) [µM]	TGI (DLD-1 colon) [µM]	TGI (SNB-78 CNS) [µM]	TGI (MDA-N) [µM]
C=C1C(=O)OC2C1C(OC(=O)/C(C)=C\C)CC1(CO1)C1C(O)C=C(C)C21O (stereo unspecified)	20	16.9	20.6	25.7	25.4	10.8	7.8	34.9	–
CCOC(=O)c1c2cccccc2n2c(=O)cc(C)nc12	> 100	–	–	–	–	> 100	–	> 100	–
CC(O)CN1c2ccccc2Sc2ccc(Cl)cc21 (stereo unspecified)	–	–	–	–	–	–	–	–	> 10
COc1ccc(/C=c2/sc3n(c2=O)NC(c2ccc(Cl)cc2)NN=3)cc1 (stereo unspecified)	> 100	–	> 100	> 100	> 100	> 100	> 100	> 100	–
CC(C)C(NC(=O)C(CCCCN)NC(=O)C(Cc1c[nH]c2ccccc12)NC(=O)C(Cc1ccc(O)cc1)NC(=O)C(CS)NC(=O)C(N)Cc1ccc2ccccc2c1)C(=O)NC(CS)C(=O)NC(C(N)=O)C(C)O (stereo unspecified) (H-[2Nal]CYWKVCT-NH2; configuration not given here)	> 100	> 100	> 100	> 100	> 100	> 100	> 100	23.2	> 12.5
CN(C)CCC1(C2=CCCC2)CC/C(=C\c2ccccc2Cl)C1=O (stereo unspecified)	–	28.1	29.5	–	54.1	24.6	37.4	29	–
CCCCCCCCCOC(=S)NCCCCC	58.3	–	47.4	–	> 100	59.3	> 100	> 100	–
COC(=O)C(=O)C(C(=O)C=C(C)C)C(=O)C(=O)Nc1nc2ccc([N+](=O)[O-])cc2s1 (stereo unspecified)	> 100	–	> 100	–	> 100	> 100	> 100	> 100	–
COc1cc(CC(C(=O)O)C(=O)O)c(OC)cc1CC(C(=O)O)C(=O)O	> 100	–	> 100	> 100	> 100	> 100	> 100	> 100	–
NNC(=O)N/N=C1\C(=O)N(c2nccs2)C(=O)C(=O)C1c1nc2ccccc2s1 (stereo unspecified)	> 100	> 100	> 100	> 100	> 100	> 100	> 100	> 100	–
O=C1C(=O)N(c2cccc(C(F)(F)F)c2)C(=O)C(=O)C1c1nc2ccccc2s1	> 100	> 100	> 100	> 100	> 100	> 100	> 100	> 100	> 100
OC1CCC[C@@H]1Sc1ccccc1 (stereo partly specified)	> 100	> 100	> 100	> 100	> 100	> 100	> 100	> 100	–
CC(=O)ON(C(C)=O)C1C(COC(c2ccccc2)(c2ccccc2)c2ccccc2)OC2OC3(CCCC3)OC21 (stereo unspecified)	> 100	–	> 100	> 100	> 100	> 100	> 100	–	–
COc1ccc(NC(=O)CCc2cc(C(C)(C)C)n[nH]2)cc1	> 100	> 100	–	> 100	> 100	> 100	–	> 100	–
COc1cc(/C=C\c2ccc(OC(C)=O)cc2)cc(OC)c1OC	> 100	> 100	> 100	82.9	> 100	> 100	> 100	84.1	–
COC(=O)C(=O)C(C(=O)C(=O)Nc1ccc(C)cc1)c1nc2ccc(C(=O)c3ccccc3)cc2[nH]c1=O (stereo unspecified)	–	–	–	–	–	–	–	–	> 100
CN(O)C(=S)c1ccccc1	4.03	2.92	4.12	> 100	4.68	> 100	4.52	> 100	> 20.5
O=c1c(-c2ccc(O)cc2)coc2cc(OC3OC(CO)C(O)C(O)C3O)cc(O)c12 (stereo unspecified)	–	–	–	–	–	–	–	–	> 100
CC1=NN(C(=O)c2ccc(Cl)cc2)C(=O)/C1=C/c1ccco1	–	–	> 100	> 100	> 100	> 100	> 100	> 100	–
Cc1ccc(/C=C(\C#N)c2ccccc2)cc1	> 100	–	> 100	–	> 100	> 100	> 100	> 100	–
CCCCCCCCCCCCCC(=O)OCC1OC(n2cc(F)c(=O)[nH]c2=O)C(N)C(OC(=O)CCCCCCCCCCCCC)C1O (stereo unspecified)	> 100	–	> 100	–	> 100	> 100	–	> 100	–
